Measured values taken from US7405238B2, “Pharmacological inducement of the fed mode for enhanced drug administration to the stomach” (priority 1999, dated 2008).
Several values for one entry are separate records, joined by “and”; a condition that tells them apart may be missing. Identical values can stand only once. Peptide text beside a SMILES is read from it.

Columns and labels:
female beagles [1] = test: Retention time of BaSO4 swelling tablet in stomach, dogs fasted 24 hours, Example 3; assay type: in vivo, dog; conditions: mean of five dogs fasted 24 hours
Description: (§1) Test formulations were administered in various regimens. In some of the tests, the dogs were given an immediate release (IR) regimen in the form of a single gelatin capsule containing a test species in a selected amount. A simulated controlled release (SCR) regimen was used in other tests by administering a gelatin capsule containing a test species in a selected amount every half hour. A third regimen was a controlled release (CR) regimen, in which the test species was incorporated in a compressed tablet of POLYOX 303 and magnesium stearate. […] The barium tablets were visualized every thirty minutes by fluoroscopy until they left the stomach. The time of the last observation of the 800 mg tablet in the stomach was recorded as the retention time. The test group also included a negative control using a fasted dog with no test formulations administered, and a positive control using a dog that was fed a standard 50 g meal but no test formulations.
(§2) Further tests were performed on a second group of dogs, consisting of five female beagles one year in age and weighing 5-7 kg each. The test protocols were the same as those in Example 1 except that the dogs were fasted for 24 hours before each test, and the test results are listed in Table II below, which lists the mean of the results observed among the five dogs as well as the range among the dogs for each test.
Further tests were performed on the second group of dogs, consisting of five female beagles one year in age and weighing 5-7 kg each. The test protocols were the same as those in Example 2, except that the controls were replaced by a negative control consisting of AVICEL (microcrystalline cellulose, FMC Corporation, Philadelphia, Pa., USA), administered as a simulated controlled release at 10 mg every half hour. The test results are listed in Table III below, which lists the mean of the results observed among the five dogs as well as the range among the dogs for each test.

female beagles [2] = test: Retention time of BaSO4 swelling tablet in stomach, dogs fasted 24 hours, Example 2; assay type: in vivo, dog; conditions: mean of five dogs fasted 24 hours
Description: (§3) Four dogs, all male beagles ranging in age from 10 months to 21 months and weighing from 6 kg to 10 kg each, were housed individually and each was fed a 1:1 (weight ratio) wet:dry mixture of food weighing 300 g once daily at 3:00 p.m. Water was provided ad libitum. The dogs were fasted for 6-8 hours overnight, preceded by the removal of feces and any uneaten food.
as §1, §2

dogs = conditions: administered in excess of 1 g; cited from earlier work
male beagles = test: Retention time of BaSO4 swelling tablet in stomach, dogs, Example 1; assay type: in vivo, dog; conditions: 7.94 × 19.05 mm BaSO4 tablet, mean of four dogs
Description: as §3, §1
The test results in terms of the retention times in hours are shown in Table I, which lists the means of the results observed among the four dogs as well as the range among the dogs for each test.

COC(=O)[C@H](Cc1ccccc1)NC(=O)[C@@H](N)CC(=O)O [Aspartame] (H-Asp-Phe-OMe)
Retention Time (h) Mean (female beagles [1]; 200 mg, IR): 3.8 ± 2.3 h

CCCCCCCCCCCCCCCC[n+]1ccccc1.[Cl-] [Cetylpyridinium chloride, reference compound]
Retention Time (h) Mean (female beagles [2]; 20 mg, IR): 4.5 ± 2.6 h
Retention Time (h) Mean (female beagles [2]; 50 mg, IR): 4.0 ± 1.3 h
Retention Time (h) Mean (female beagles [2]; 100 mg, IR): 3.2 ± 0.9 h
Retention Time (h) Mean (female beagles [1]; 5 mg, IR): 4.0 ± 2.8 h
Retention Time (h) Mean (female beagles [1]; 20 mg, IR): 4.45 ± 2.6 h

N=C(N)NCCC[C@H](N)C(=O)O [L-Arginine]
effect on gastric emptying (dogs): slowed gastric emptying
Retention Time (h) Mean (male beagles; 300 mg, CR (POLYOX 303 tablet)): 3.6 ± 1.6 h
Retention Time (h) Mean (male beagles; 400 mg, IR): 1.6 ± 0.2 h

CN(C)C(=O)C(CCN1CCC(O)(c2ccc(Cl)cc2)CC1)(c1ccccc1)c1ccccc1 [Loperamide, 4-(p-chlorophenyl)-4-hydroxy-N,N-dimethyl-α,α-diphenyl-1-piperidinebutyramide, reference compound]
Retention Time (h) Mean (male beagles; 0.1 mg, IR): 2.5 ± 1.3 h

CCCCC(CC)COC(=O)CC(C(=O)OCC(CC)CCCC)S(=O)(=O)O (stereo not drawn) [Na docusate, reference compound]
Retention Time (h) Mean (male beagles; 200 mg, IR): 2.6 ± 1.4 h

NC(Cc1c[nH]c2ccccc12)C(=O)NC(Cc1c[nH]c2ccccc12)C(=O)O (stereo not drawn) [Trp-Trp]
Retention Time (h) Mean (female beagles [2]; SCR, 5 mg every thirty minutes): 4.6 ± 1.5 h
Retention Time (h) Mean (female beagles [2]; SCR, 10 mg every thirty minutes): 2.4 ± 1.8 h
Retention Time (h) Mean (female beagles [2]; SCR, 40 mg every thirty minutes): 3.4 ± 1.9 h
Retention Time (h) Mean (male beagles; 200 mg, IR): 3.1 ± 3.9 h and 2.1 ± 1.8 h
Retention Time (h) Mean (male beagles; SCR, 20 mg every thirty minutes): 2.8 ± 0.3 h
Retention Time (h) Mean (female beagles [1]; SCR, 0.5 mg every thirty minutes): 4.6 ± 1.7 h
Retention Time (h) Mean (female beagles [1]; SCR, 2 mg every thirty minutes): 4.2 ± 1.1 h

OC[C@@H](O)[C@H](O)[C@@H](O)CO [Xylitol, CH2OH—(CHOH)3—CH2OH]
Retention Time (h) Mean (male beagles; 600 mg, IR): 3.1 ± 1.5 h

N[C@@H](Cc1c[nH]c2ccccc12)C(=O)O [tryptophan]
effect on gastric emptying (dogs): slowed gastric emptying

O=C(O)CCCCC1CCSS1 (stereo not drawn) [α-Lipoic acid]
Retention Time (h) Mean (male beagles; 150 mg, IR): 2.8 ± 1.6 h

glycine
effect on gastric emptying (dogs): slowed gastric emptying

β-Casomorphin: peptide released from β-casein; bovine sequence Tyr-Pro-Phe-Pro-Gly-Pro-Ile; species tested not stated (YPFPGPI; printed: Tyr-Pro-Phe-Pro-Gly-Pro-Ile)
Retention Time (h) Mean (male beagles; 25 mg, IR): 2.6 ± 1.1 h
Retention Time (h) Mean (female beagles [1]; 10 mg, IR): 3.5 ± 2.1 h
